# From US4737518A, “Lipid derivatives, their production and use” (Takeda Chemical Industries, Ltd., priority 1984, dated 1988)
# Several values for one entry are separate records, joined by “and”; a condition that tells them apart may be missing. Identical values can stand only once.
# Assays:
# [1] = tested on: rabbit platelet aggregation by PAF; assay: Inhibitory activity on rabbit platelet aggregation by PAF; format: cell-based; details: Oryctolagus cuniculus, PAF 1×10^-8 M, read-out: rate of inhibition of rabbit platelet aggregation by PAF
# PAF-induced hypotension = assay: Inhibitory activity against PAF-induced hypotension in rats; format: in vivo, rat (male Spraque-Dawley); details: PAF 0.3 μg/kg i.v.
# Method: Inhibitory activity against PAF-induced hypotension in rats
# Male Spraque-Dawley rats, with a body weight of about 400 g, were used under pentobarbital sodium (50 mg/kg, intravenous administration) anesthesia. A cannula was inserted into the femoral artery and secured in position for measurement of blood pressure and another cannula into the femoral vein for administration of a solution of the drug. The blood pressure was measured via a pressure transducer and recorded on a polygraph. First, 0.3 μg/kg of PAF was administered intravenously and the hypotensive response was recorded.
# The inhibitory activity against PAF-induced hypotension was estimated from the rate of PAF-induced hypotensive response (Δ mmHg) after the drug administration to hypotensive response (Δ mmHg) by PAF before the drug administration.
# [2] = tested on: endotoxin-induced hypotension; assay: Anti-endotoxin shock activity in rats; format: in vivo, rat (male Spraque-Dawley); details: endotoxin 15 mg/kg i.v., one minute after
# Method: Anti-endotoxin shock activity in rats
# Male Spraque-Dawley rats weighting about 400 g were used under pentobarbital sodium (50 mg/kg, i.v.) anesthesia. A cannula was inserted into the femoral artery and secured in position for measurement of blood pressure and another cannula into femoral vein for administration of a solution of the drug. The blood pressure was measured via a pressure transducer and recorded on a polygraph. First, a suspension of endotoxin (15 mg/kg) [Lipopolysaccharide W.E. coli 0111: B4, Wako Pure Chemical] in physiological saline was administered intravenously and the maximum hypotensive response (Δ mmHg) occurring 3 to 5 minutes after administration was recorded. Simultaneously, the compound of Example 108 was dissolved in physiological saline and administered intravenously in a dose of 1 to 100 μg/kg. The restortion rate against endotoxin-induced hypotension one minute after the administration was calculated. The presence of preventive activity against endotoxin shock was judged from the strength of the restoration rate.
# HL-60 cells = assay: Effect on inducing differentiation of HL-60 cells (NBT-positive cells); format: cell-based, human; details: 6 days
# Method: Assay of the effects on inducing differentiation of HL-60 cells (human promyelocytic leukemia cells) and Neuro-2a cells (mouse neuroblastoma cells): RPMI-1640 medium (Flow Laboratories, Inc.) supplemented with 20% fetal calf serum (M.A. […] The culture was incubated at 37° C. in a 5% CO2 incubator for 6 days. […] The reaction was allowed to proceed at 37° C. for 20 minutes. The reaction was stopped by cooling with ice, and the cells were washed by means of centrifugation, followed by collecting 3-5×10^4 cells and by subjecting to centrifugation using Cytospin centrifuge to prepare a cell smear, which was fixed with methanol and stained with Kernechtrot solution. On each cell smear, the percentage of NBT-positive cells relative to live cells, […] by examination of a minimum of 200 cells, was expressed as the differentiation extent.
# Neuro-2a cells [3] = assay: Effect on morphological differentiation of neuroblastoma Neuro-2a; format: cell-based, mouse; details: three days, untreated 22
# Method: Assay of the effects on inducing differentiation of HL-60 cells (human promyelocytic leukemia cells) and Neuro-2a cells (mouse neuroblastoma cells):
# For Neuor-2a cells, 1×10^4 cells were inoculated into GIT medium (Daigo-eiyo Chemicals, Japan) and one day later various amounts of the compound of Example 108 were added. The cells were incubated for following three days at 37° C. in a 5% CO2 incubator.
# The percentage of cells that were morphologically similar to neurocyte with extended neurite was determined by microscopical examination of cells more than 200.
# KB cells = assay: Cell growth inhibition assay, KB; format: cell-based; details: Homo sapiens, 72 h, concentration giving T/C 50%, day 4, read-out: ED50 (the source's name)
# Method: (§1) 2×10^4 cells per well charged with GIT medium for KB cells (human epidermoid carcinoma cells), A549 cells (human lung carcinoma cells) and HSC-1 cells (human skin squamous carcinoma cells), and 4×10^4 cells for B16-BL6 cells (mouse melanoma cells) and 5×10^3 cells for Neuro-2a cells were inoculated. On day 1 (next day), various concentrations of the compound of Example 108 were added. On day 4, cells were suspended in a solution of trypsin-EDTA and the number of cells was counted. The ratio of cell number in treated culture to that in control culture was estimated as T/C (%) value. The concentration of the compound of Example 108 giving a value of T/C, 50% was defined as ED50.
# B16-BL6 cells = assay: Cell growth inhibition assay, B16-BL6; format: cell-based; details: Mus musculus, 72 h, concentration giving T/C 50%, day 4, read-out: ED50 (the source's name)
# Method: as §1
# HSC-1 cells = assay: Cell growth inhibition assay, HSC-1; format: cell-based; details: Homo sapiens, 72 h, concentration giving T/C 50%, day 4, read-out: ED50 (the source's name)
# Method: as §1
# A549 cells = assay: Cell growth inhibition assay, A549; format: cell-based; details: Homo sapiens, 72 h, concentration giving T/C 50%, day 4, read-out: ED50 (the source's name)
# Method: as §1
# Neuro-2a cells [4] = assay: Cell growth inhibition assay, Neuro-2a; format: cell-based; details: Mus musculus, N2a, 72 h, concentration giving T/C 50%, day 4, read-out: ED50 (the source's name)
# Method: as §1
structure (smiles),measurement,setting,value
"CCCCCCCCCCCCCCCCCCNC(=O)OCC(COC(=O)N(Cc1cccc[n+]1CC)C(C)=O)OC (stereo not drawn) [Example 108, 1-Ethyl-2-[N-acetyl-N-(3-octadecylcarbamoyloxy-2-methoxypropyloxy)carbonyl]aminomethylpyridinium chloride]",inhibition at 30 µM,[1]; test drug 3 × 10^-5 M,100%
same,inhibition at 3 µM,[1]; test drug 3 × 10^-6 M,100%
same,inhibition at 0.3 µM,[1]; test drug 3 × 10^-7 M,100%
same,Restoration rate,"PAF-induced hypotension; 0.1 mg/kg i.v., after 5 min",100%
same,Restoration rate,"PAF-induced hypotension; 0.1 mg/kg i.v., after 60 min",55%
same,Restoration rate,"PAF-induced hypotension; 1 mg/kg i.v., after 5 min",100%
same,Restoration rate,"PAF-induced hypotension; 1 mg/kg i.v., after 60 min",100%
same,Restoration rate against endotoxin-induced hypotension,"[2]; 0.01 mg/kg i.v., 2 rats, single values",100% and 59%
same,Restoration rate against endotoxin-induced hypotension,"[2]; 0.1 mg/kg i.v., 3 rats, mean ± standard error",97 ± 1%
same,Maximum differentiation extent: Optimal conc.,HL-60 cells,0.63 µg/mL
same,Emax,"HL-60 cells; Homo sapiens, HL-60, 144 h, at optimal conc., NBT-positive relative to live cells, read-out: Maximum differentiation extent: Differentiation",83%
same,% of cells with neurite,Neuro-2a cells [3]; 2.5 μg/ml,26%
same,% of cells with neurite,Neuro-2a cells [3]; 5 μg/ml,33%
same,% of cells with neurite,Neuro-2a cells [3]; 10 μg/ml,35%
same,% of cells with neurite,Neuro-2a cells [3]; 15 μg/ml,44%
same,% of cells with neurite,Neuro-2a cells [3]; 20 μg/ml,74%
same,IC50,KB cells,0.16 µg/mL
same,IC50,B16-BL6 cells,2.5 µg/mL
same,IC50,HSC-1 cells,0.63 µg/mL
same,IC50,A549 cells,0.63 µg/mL
same,IC50,Neuro-2a cells [4],5 µg/mL
